Results: BindingDB's records for doi:10.1002/1520-636X(2001)13:3 (University of Maryland, 2001)

Experiments:
[1] = molecular target: Kappa-type opioid receptor (Rattus norvegicus, UniProt P34975)
Mu-type opioid receptor = Mu-type opioid receptor (Rattus norvegicus, UniProt P33535)
[2] = molecular target: Delta-type opioid receptor (Mus musculus, UniProt P32300)
Chain of Delta-type opioid receptor (P32300 whole entry): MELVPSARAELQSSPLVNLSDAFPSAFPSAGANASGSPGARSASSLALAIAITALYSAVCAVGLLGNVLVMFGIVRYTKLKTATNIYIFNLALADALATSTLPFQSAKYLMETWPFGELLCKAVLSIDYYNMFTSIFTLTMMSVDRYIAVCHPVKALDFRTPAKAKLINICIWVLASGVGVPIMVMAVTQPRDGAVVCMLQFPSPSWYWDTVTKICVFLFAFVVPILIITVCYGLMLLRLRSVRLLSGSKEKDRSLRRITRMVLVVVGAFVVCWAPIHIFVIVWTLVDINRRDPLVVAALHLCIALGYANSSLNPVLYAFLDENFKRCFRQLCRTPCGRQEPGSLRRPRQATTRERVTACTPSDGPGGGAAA

Chain of Mu-type opioid receptor (P33535 whole entry): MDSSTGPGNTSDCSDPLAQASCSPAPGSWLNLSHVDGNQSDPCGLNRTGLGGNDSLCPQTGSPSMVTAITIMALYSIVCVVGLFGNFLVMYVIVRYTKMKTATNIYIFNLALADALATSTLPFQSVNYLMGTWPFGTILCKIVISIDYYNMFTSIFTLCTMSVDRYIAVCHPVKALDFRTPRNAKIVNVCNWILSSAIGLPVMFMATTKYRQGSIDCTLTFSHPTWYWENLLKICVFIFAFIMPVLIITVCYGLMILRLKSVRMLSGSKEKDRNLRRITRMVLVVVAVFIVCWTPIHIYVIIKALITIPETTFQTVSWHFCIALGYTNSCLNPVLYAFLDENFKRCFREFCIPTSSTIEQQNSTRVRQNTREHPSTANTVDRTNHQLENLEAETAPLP
Chain of Kappa-type opioid receptor (P34975 whole entry): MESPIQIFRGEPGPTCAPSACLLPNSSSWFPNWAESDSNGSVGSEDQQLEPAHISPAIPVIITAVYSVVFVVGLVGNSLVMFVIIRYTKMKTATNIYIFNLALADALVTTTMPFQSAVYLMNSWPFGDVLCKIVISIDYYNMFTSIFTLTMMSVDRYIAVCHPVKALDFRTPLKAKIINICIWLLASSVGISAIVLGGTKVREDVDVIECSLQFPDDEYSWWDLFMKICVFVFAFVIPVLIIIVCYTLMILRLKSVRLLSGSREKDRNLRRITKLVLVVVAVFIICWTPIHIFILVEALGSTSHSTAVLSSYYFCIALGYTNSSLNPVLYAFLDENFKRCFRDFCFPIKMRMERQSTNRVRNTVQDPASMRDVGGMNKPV

Work on CC(C)C[C@H](NC(=O)[C@H](Cc1ccccc1)NC(=O)CNC(=O)CNC(=O)[C@@H](N)Cc1ccc(O)cc1)C(=O)N[C@@H](CCCN=C(N)N)C(=O)N[C@@H](CCCN=C(N)N)C(=O)N[C@H](C)C(=O)N[C@@H](CCCN=C(N)N)C(=O)N1CCC[C@H]1C(=O)N[C@@H](CCCCN)C(N)=O [[D-Ala8]Dyn A-(1-11)NH2] yielded a Ki [1] of 9.53 nM.
For CC(C)C[C@H](NC(=O)[C@@H](Cc1ccccc1)NC(=O)CNC(=O)CNC(=O)[C@@H](N)Cc1ccc(O)cc1)C(=O)N[C@@H](CCCN=C(N)N)C(=O)N[C@@H](CCCN=C(N)N)C(=O)N[C@H](C)C(=O)N[C@@H](CCCN=C(N)N)C(=O)N1CCC[C@H]1C(=O)N[C@@H](CCCCN)C(N)=O [[D-Phe4, D-Ala8]Dyn A-(1-11)NH2], the Ki (Mu-type opioid receptor) was 88.2 nM and the Ki [2] was > 10000 nM.
